Legend:
[1] = test system: chow fed obese female Zucker rats; test: Experiments B, C, D, E: serum lipids, glucose, insulin, body and liver weight in obese female Zucker rats, 14 days; format: in vivo, rat
Description: In a number of different experiments, illustrative compounds of the invention and troglitazone were administered daily at various doses to 10-week old chow fed obese female Zucker rats for 14 days in the morning by oral gavage in 1.5% carboxymethylcellulose/0.2% Tween-20 (dosing vehicle). Animals were weighed daily. Animals were allowed free access to rodent chow and water throughout the study. Blood glucose was determined after a 6-hour fast in the afternoon without anesthesia from a tail vein. Serum was also prepared from a blood sample subsequently obtained from the orbital venous plexus (with O2/CO2 anesthesia) prior to and after one week treatment and used lipid and insulin determinations. At two weeks, blood glucose was again determined after a 6-hour fast without anesthesia from a tail vein. Soon thereafter, animals were sacrificed by CO2 inhalation in the evening and cardiac blood serum was collected and assessed for various lipids and insulin. Body weight was determined daily prior to dosing and at the time of euthanasia.

[2] = test system: chow fed male Sprague-Dawley rats; test: Serum lipids, lipoproteins, apolipoproteins and weight gain in chow fed male Sprague-Dawley rats after seven daily oral doses; format: in vivo, rat; conditions: 100 mg/kg, seven days, vs vehicle
Description: Illustrative compounds of the invention were administered daily at a dose of 100 mg/kg to chow fed male Sprague-Dawley rats for seven days in the morning by oral gavage in 1.5% carboxymethylcellulose/0.2% Tween-20 (dosing vehicle). Animals were weighed daily. Animals were allowed free access to rodent chow and water throughout the study. After the seventh dose, animals were sacrificed in the evening and blood serum was assayed for lipoprotein cholesterol profiles, serum triglycerides, total cholesterol VLDL, LDL, and HDL cholesterol, and the ratio of HDL cholesterol to that of VLDL plus LDL cholesterol, apolipoproteins A-I, C-II, C-III, and E by immunoelectrophoresis, and percent weight gain.
The five compounds were tested in two separate experiments. In each experiment, the experimental data were normalized against a control group of rats which received the dosing vehicle alone.

female obese Zucker rats = test: Experiment A: serum lipids, glucose, non-esterified fatty acids and weight gain in obese female Zucker rats, seven days; format: in vivo, rat; conditions: Compound A 86 mg/kg, one week
Description: Dosing vehicle, Compound A (86 mg/kg of body weight) or troglitazone (120 mg/kg of body weight) was administered to eight week old female obese Zucker rats daily for seven days in the morning by oral gavage in 1.5% carboxymethylcellulose/0.2% Tween-20. Troglitazone was obtained commercially. Finely crushed tablets were suspended in vehicle for dosing. Orbital blood samples were obtained following a six-hour fast prior to the initial dose and also following the seventh dose.
Blood serum was assayed for total cholesterol and triglycerides (FIG. 5), lipoprotein cholesterol profiles (FIG. 6), VLDL plus LDL cholesterol combined (also referred to as apo B containing lipoprotein cholesterol or non-HDL cholesterol), HDL cholesterol, and the ratio of HDL cholesterol to that of VLDL plus LDL cholesterol (FIG. 7), serum glucose, and non-esterified fatty acids (FIG. 8), and percent weight gain (FIG. 9). […] In particular, Compound A caused a marked elevation in HDL cholesterol after one week of treatment. Using the serum total cholesterol values (FIG. 5A) and the lipoprotein cholesterol distribution (FIG. 6), the amount of cholesterol associated with non-HDL (i.e., VLDL plus LDL) and HDL were determined (FIG. 7). […] In contrast, troglitazone reduced non-HDL and HDL cholesterol by 67% and 4%, respectively.

[3] = test system: LDL receptor deficient mice; test: Lipoprotein cholesterol profile in LDL receptor-deficient mice; format: in vivo; conditions: 300 mg/kg/day, one week; 4 chow-fed female mice (FIG. 17)
Description: The effect of Compound A on LDL levels in a murine model of homozygous familial hypercholesterolemia (Ishibashi et al., 1993, J. Clin. Invest. 92:883-893; Ishibashi et al., 1994, J. Clin. Invest. 93:1885-1893) was studied. LDL receptor-deficient mice have elevated LDL cholesterol relative to wild type mice when fed a chow diet. When fed cholesterol-enriched diets, these mice develop atherosclerosis.

[4] = test system: hepatocytes isolated from a male Sprague-Dawley rat; test: Synthesis of non-saponified and saponified lipids (14C-acetate incorporation) in hepatocytes; format: cell-based; conditions: 100 μM, 14C-acetate labeling 2 hr (FIG. 18)
Description: A male Sprague-Dawley rat was anesthetized by administration of sodium pentobarbitol by intraparitoneal injection at 50 mg/kg. In situ perfusion of the liver was performed as follows. […] To digest the liver, DSC solution (6.7 mM KCl, 143 mM NaCl, 9.2 mM Na HEPES, 5 mM CaCl2-2H2O, 1.7 mM Fructose, 0.029 mM Phenol red, 0.2% BSA, 100 U/ml collagenase Type I, 93 U/ml Hyaluronidase, 160 BAEE/ml trypsin inhibitor, pH 7.5) was perfused through the liver at a flow rate of 30 ml/min for 6 minutes at a temperature of 37° C. After digestion, cells were dispersed in a solution of DMEM-(DMEM containing 2 mM GlutMax-1, 0.2% BSA, 5% FBS, 12 nM insulin, 1.2 μM hydrocortisone) to stop the digestion process. The crude cell suspension was filtered through three layers of stainless steel mesh with pore sizes of 250, 106, and 75 μm respectively. Filtered cells were centrifuged at 50×g for two minutes and the supernatant discarded. The resulting cell pellet was resuspended in DMEM and centrifuged again. This final cell pellet was resuspended in DMEM+HS solution (DMEM containing 2 mM GlutMax-1, 20 nM delta-aminolevulinic acid, 17.4 mM MEM non-essential amino acids, 20% FBS, 12 nM insulin, 1.2 μM hydrocortisone) and plated to form monolayer cultures at a density of 100×10^3 cells/cm^2 on collagen coated culture dishes. […]

For CC(C)(CO)CCCCOCCCCC(C)(C)CO [Compound A, 6-(6-hydroxy-5,5-dimethylhexyloxy)-2,2-dimethyl-hexan-1-ol], the “Body Weight Gain (% of Pre-treatment)” value ([1]; Experiment C, 1 mg/kg/day, 14 days, control +16.7) was “+16.7 % of Pre-treatment”, the “Triglycerides (% of Pre-treatment)” value ([1]; Experiment C, 1 mg/kg/day, 14 days, control −11.2) was −8.8 % of Pre-treatment and the “Body Weight Gain (% of Pre-treatment)” value ([1]; Experiment C, 3 mg/kg/day, 14 days, control +16.7) was “+17.5 % of Pre-treatment”. For the same compound, the “Triglycerides (% of Pre-treatment)” value ([1]; Experiment C, 3 mg/kg/day, 14 days, control −11.2) was −24.6 % of Pre-treatment, the “HDL-Cholesterol (% of Pretreatment)” value ([1]; Experiment C, 3 mg/kg/day, 14 days, control −29.8) was −3.7 % of Pretreatment and the “Body Weight Gain (% of Pre-treatment)” value ([1]; Experiment C, 10 mg/kg/day, 14 days, control +16.7) was “+10.7 % of Pre-treatment”. For the same compound, the “Triglycerides (% of Pre-treatment)” value ([1]; Experiment C, 10 mg/kg/day, 14 days, control −11.2) was −50.9 % of Pre-treatment, the “Body Weight Gain (% of Pre-treatment)” value ([1]; Experiment C, 30 mg/kg/day, 14 days, control +16.7) was “+11.3 % of Pre-treatment” and the “Triglycerides (% of Pre-treatment)” value ([1]; Experiment C, 30 mg/kg/day, 14 days, control −11.2) was −42.0 % of Pre-treatment. For the same compound, the “Triglycerides (% of Pre-treatment)” value ([1]; Experiment C, 100 mg/kg/day, 14 days, control −11.2) was −57.0 % of Pre-treatment, the “glucose to insulin ratio (in words)” value ([1]; Experiment C, Compound A 100 mg/kg (FIG. 14)) was “reduced” and the “blood glucose (in words)” value ([1]; Experiment C, Compound A 100 mg/kg, troglitazone 40 mg/kg, fasted rats (FIG. 12)) was “tendency to lower blood glucose”. The “reduction of serum triglycerides (in words)” value ([1]; Experiment C, Compound A 1-100 mg/kg, troglitazone 12, 40, 120 mg/kg (FIG. 10)) was “reduced serum triglyceride levels at all doses”, the “glucose to insulin ratio (in words)” value ([1]; Experiment C, Compound A 1 and 3 mg/kg, two weeks (FIG. 14)) was “declined by approximately ⅓ to ½” and the “weekly percent weight gain (in words)” value ([1]; Experiment C, Compound A 10, 30 and 100 mg/kg, after one and two weeks (FIG. 15)) was “markedly reduced”. For the same compound, the “glucose to insulin ratio (in words)” value ([1]; Experiment C, Compound A 10 and 30 mg/kg (FIG. 14)) was “sustained at pretreatment levels”, the “serum insulin (in words)” value ([1]; Experiment C, higher Compound A doses (FIG. 13)) was “sharp rise in serum insulin was largely curtailed or minimized” and the “Triglycerides (% of Pre-treatment)” value ([1]; Experiment D, 10 mg/kg/day, 14 days, control +1.6) was −11.1 % of Pre-treatment. The “Body Weight Gain (% of Pre-treatment)” value ([1]; Experiment D, 10 mg/kg/day, 14 days, control +10.6) was “+2.2 % of Pre-treatment”, the “Triglycerides (% of Pre-treatment)” value ([1]; Experiment D, 100 mg/kg/day, 14 days, control +1.6) was −62.9 % of Pre-treatment and the “Body Weight Gain (% of Pre-treatment)” value ([1]; Experiment D, 100 mg/kg/day, 14 days, control +10.6) was “+4.5 % of Pre-treatment”. The “Non HDL-Cholesterol (% of Pretreatment)” value ([1]; Experiment D, 100 mg/kg/day, 14 days, control +15.2) was “+7.5 % of Pretreatment”, the “Triglycerides (% of Pre-treatment)” value ([1]; Experiment E, 100 mg/kg/day, 14 days, control +12.0) was −43.2 % of Pre-treatment and the “Body Weight Gain (% of Pre-treatment)” value ([1]; Experiment E, 100 mg/kg/day, 14 days, control +21.9) was “+19.1 % of Pre-treatment”. The “Non HDL-Cholesterol (% of Pretreatment)” value ([1]; Experiment E, 100 mg/kg/day, 14 days, control −13.1) was “+7.2 % of Pretreatment”, the “change in VLDL cholesterol” value [2] was “no change” and the “serum glucose (in words)” value (female obese Zucker rats) was “did not induce a hypoglycemic state”. For the same compound, the “HDL (in words)” value [3] was “HDL elevation in all treated mice” and the “LDL cholesterol (in words)” value [3] was “rapid and significant reduction in LDL cholesterol”.
For CC(C)(CCCCOCCCCC(C)(C)OP(=O)(O)O)OP(=O)([O-])[O-].[Na+].[Na+] [Compound B, phosphoric acid mono-(1,1-dimethyl-5-(5-methyl-5-phosphonooxy-hexyloxy)-pentyl) ester sodium salt], the “Body Weight Gain (% of Pre-treatment)” value ([1]; Experiment B, 100 mg/kg/day, 14 days, control +10.7) was “+12.0 % of Pre-treatment” and the “Triglycerides (% of Pre-treatment)” value ([1]; Experiment B, 100 mg/kg/day, 14 days, control −31.9) was “+24.6 % of Pre-treatment”.
For CC(C)(CCCOCCCC(C)(C)OP(=O)(OCc1ccccc1)OCc1ccccc1)OP(=O)(OCc1ccccc1)OCc1ccccc1 [Compound E, phosphoric acid dibenzyl ester 4-(4-(bis-benzyloxy-phosphoryloxy)-4-methyl-pentyloxy)-1,1-dimethyl-butyl ester], the “rate of saponified fatty acid synthesis (in words)” value [4] was “reduced the rates of saponified fatty acid synthesis”.
In the case of CC(C)(O)CCCCOCCCCC(C)(C)O [Compound F, 6-(5-hydroxy-5-methyl-hexyloxy)-2-methyl-hexan-2-ol], the “rate of saponified fatty acid synthesis (in words)” value [4] was “reduced the rates of saponified fatty acid synthesis”.
